Measurements as given in paper PMC6389950, “Small Peptide Ligands for Targeting EGFR in Triple Negative Breast Cancer Cells” (Scientific Reports, 2019).
One block for each molecule: values may come before it. Where a SMILES comes first, the peptide text is derived from it. The star is where a group is joined. FITC = O=C1OC2(c3ccc(O)cc3Oc3cc(O)ccc32)c2ccc(NC(=S)*)cc21; βAla = NCCC(=O)O

Key:
[1] = cited from earlier work
Excerpt: (§1) We found a region in EGF that may have structural similarity to peptide 22 (Fig. 4b). There is low sequence homology between the two sequences (peptide 22 and 12-residue region of EGF), however, based on the pr ...

breast cancer cells = settings: compared to linear peptide 18–4; cited from earlier work
Excerpt: as §1

EGFR on MDA-MB-231 cells = target: T1, EGFR on MDA-MB-231 cells (Homo sapiens, UniProt P00533); test: Competitive uptake by FACS with excess EGF protein or unlabeled peptide 1; assay type: cell-based; settings: MDA-MB-231 cells (10^5), FITC-peptide 1 μM, 30 min
T1 construct: host or cells: MDA-MB-231
Protocol: The specific uptake of peptides 1 and 22 was evaluated using a competitive assay. First, MDA-MB-231 cells were incubated with peptide FITC-1 in the presence and absence of excess EGF protein (20-fold). […] The competition experiment was also repeated with peptide 22 in the presence and absence of EGF protein.
In addition, MDA-MB-231 cells (10^5) were incubated with varying concentration of peptide FITC-22 (0–6 μM). The resulting samples were treated as above, and the experiment was repeated. The fluorescence intensity of the FITC peptide-cell complex was plotted against peptide concentration. […] Control group was treated with media alone containing ~5% DMSO. Each group was done in duplicate and the experiment was repeated once.

MDA-MB-231 [2] = test: In vitro cellular uptake of FITC-labeled peptides by FACS; assay type: cell-based; settings: 30 min, 37 °C; for Mean Fluorescence Intensity ± SD MDA-MB-231: soluble FITC-β-alanine-labeled peptide 1 µM, FBS free media, 10^5 or 10^6 cells/well, MFI of FITC positive cells, three independent experiments ± SD
Excerpt: (§2) Flow cytometry was employed to determine the cellular uptake of selected six peptides (1, 4, 22, 23, 26, and 27). As opposed to the membrane bound (conjugated) peptide in library screening, the peptides used here were soluble (or free) FITC-labeled peptides. Peptides were labeled with FITC in the N-terminal and a β-alanine residue was used as a spacer between the FITC and the peptide sequence. The same three TNBC cells lines (MDA-MB-468, MDA-MB-231 and MDA-MB-436) used for peptide array screening were used here as well. Peptides 1 and 4 were used as controls. […] Peptide 4 was included in this experiment to compare the uptake of this keratin 1 binding peptide with the EGFR binding peptides. Peptides 22, 23, 26, and 27 were identified as the best EGFR binding peptides from the library screening.
(§3) Fluorescence-activated cell-sorting (FACS) analysis was used to check the uptake of the FITC-peptides. The stock solution for the FITC-peptides (100 μM) was prepared by dissolving the peptides in sterile water/10% DMSO. MDA-MB-231, MDA-MB-468 and MDA-MB-436 cells were seeded in 6-well plates with 10^6/10^5 cells/well containing 3 mL media and the plates were incubated at 37 °C overnight. The following day, the media was replaced with fresh FBS free media (1 mL) containing FITC-labeled peptide (1 µM), and further incubated at 37 °C for 30 min. Thereafter the media was removed and the cells were washed with cold PBS to remove any remaining peptide. Adequate trypsin was added to each well followed by 3–5 min incubation at 37 °C. Trypsin was immediately neutralized by adding media and the cell suspension was transferred into centrifuge tubes. The cells were separated and washed twice with FACS sheath fluid. The control cells were treated similarly but without peptide. Two wells were assigned for each peptide and each well sample was read twice in FACS machine. The experiment was repeated once. MFI represents the average of all wells for each peptide.

MDA-MB-436 [3] = test: as above; assay type: cell-based; settings: soluble FITC-β-alanine-labeled peptide 1 µM, 30 min, 37 °C, FBS free media, 10^5 or 10^6 cells/well, MFI of FITC positive cells, three independent experiments ± SD
Excerpt: as §2, §3

MDA-MB-468 [4] = test: as above; assay type: cell-based; settings: 30 min, 37 °C; for Mean Fluorescence Intensity ± SD MDA-MB-468: soluble FITC-β-alanine-labeled peptide 1 µM, FBS free media, 10^5 or 10^6 cells/well, MFI of FITC positive cells, three independent experiments ± SD
Excerpt: as §2, §3

[5] = Peptide stability in human serum; assay type: in vitro ADME; settings: preliminary results, data not shown
MCF-10A = test: Peptide array-whole cell binding assay; assay type: cell-based; settings: non-tumorigenic cells; peptide conjugated to cellulose membrane (amino-PEG500); cells 75 × 10^3 cells/mL, 37 °C, 4 h; CyQUANT fluorescence relative to peptide 1; spots in duplicate
Excerpt: (§4) Peptide array on the cellulose membrane was used to evaluate the binding of each peptide to different cell lines. The amino functionalized cellulose membrane provided by Intavis is acid hardened providing high stability at pH range from 1–14, permitting its use in acidic or basic conditions while maintaining membrane integrity. The PEG linker on membrane surface functions as a hydrophilic spacer between the peptide and the solid surface (membrane) reducing background signal. Cell lines were carefully selected for screening peptides as our goal here is to screen peptides with high binding/uptake by the TNBC cells. […] EGFR is overexpressed by a number of TNBC cells such as MDA-MB-468 (obtained from primary tumor source) and MDA-MB-231 (from metastasis cancer tissue)[13],[14]. While other TNBC cells like MDA-MB-436 (obtained from metastasis cancer tissue) are known to express low levels of EGFR. Non-tumorigenic epithelial MCF10A and MCF12A cells derived from the breast tissue also express low levels of EGFR[14],[34]. We selected two TNBC cell lines with relatively high expression of EGFR expression (MDA-MB-468/231) and a TNBC cell line with low level of EGFR expression (MDA-MB-436) for the peptide array screening experiments. In addition, non- tumorigenic cell line, MCF-10A was used for comparison. These four cell lines were allowed to bind the membrane by seeding the cells on the membrane and the bound cells were labeled with a fluorescent dye CyQUANT.
(§5) For the binding assay, the peptide array was incubated with the cells in sequential steps as described previously. Briefly peptide array membrane was dipped in ethanol for 30 s to remove any precipitation on it, followed by dipping in sterile PBS (pH 7.4) for another 30 min. The cells (75 × 10^3 cells/mL) were seeded directly on the membrane in a sterile plate and incubated at 37 °C for 4 h. The unbound cells were washed out with sterile PBS (pH 7.4). Thereafter the membrane was placed in a sealed bag and transferred to −80 °C freezer for 2 h. Subsequently it was defrosted at room temperature and treated with CyQUANT solution. The CyQUANT concentration was optimized based on the manufacturer’s protocol and preliminary experiments. Membrane was incubated at 37 °C for 30 min with the dye. After washing with sterile PBS and air drying using blow dryer, the membrane was scanned using Bio-rad chemidoc imager with image lab software. The settings were adjusted based on the excitation (465 nm) and emission (535 nm) wavelengths of CyQUANT dye. Epi Blue was selected for the light source (455–485 nm) and filter number 4 (blue filter, 518–546 nm) was employed. The fluorescence intensity of cancer cells read using chemidoc imager was normalized using the non-cancer cell fluorescence intensity. Eventually relative fluorescence was assessed to select peptides with high affinity to cancer cells and low or minimal binding to normal cells.

MDA-MB-231 [6] = test: Peptide array-whole cell binding assay; assay type: cell-based; settings: peptide conjugated to cellulose membrane (amino-PEG500), no free C-terminus; cells 75 × 10^3 cells/mL, 37 °C, 4 h; CyQUANT fluorescence relative to peptide 1; spots in duplicate
Excerpt: as §4, §5

MDA-MB-436 [7] = test: Peptide array-whole cell binding assay; assay type: cell-based; settings: peptide conjugated to cellulose membrane (amino-PEG500), no free C-terminus; cells 75 × 10^3 cells/mL, 37 °C, 4 h; CyQUANT fluorescence relative to peptide 1; spots in duplicate
Excerpt: as §4, §5

MDA-MB-468 [8] = test: Peptide array-whole cell binding assay; assay type: cell-based; settings: peptide conjugated to cellulose membrane (amino-PEG500), no free C-terminus; cells 75 × 10^3 cells/mL, 37 °C, 4 h; CyQUANT fluorescence relative to peptide 1; spots in duplicate
Excerpt: as §4, §5

[9] = target: T2, epidermal growth factor receptor (EGFR or ErbB1) (human (endogenous in MDA-MB-468, …, UniProt P00533 25-1210)); test: flow cytometry on cells; competition: MDA-MB-231 cells (10^5); EGF (20 µM, 20-fold excess) or unlabeled peptide 1 (100 µM, 100-fold excess) added first, then FITC-labelled peptide 1 or 22 (1 µM), 30 min; settings: one partner purified
T2 construct: epidermal growth factor receptor, endogenous on human breast cell lines; expression levels are cited, not measured here; no isolated EGFR was used

[10] = soluble FITC-labeled peptide 1 µM

Decrease in fluorescence in the presence of 100-fold excess unlabeled peptide 1 (EGFR on MDA-MB-231 cells; unlabeled peptide 1 100 μM): 19.5%
Molecule: FITC-AβYHWYGYTPQNVI [FITC-1, reference compound]

FITC positive cells, no competitor (EGFR on MDA-MB-231 cells; rounded value): 99%
Decrease in fluorescence / FITC positive cells in the presence of 20-fold excess EGF protein (EGFR on MDA-MB-231 cells; EGF 20 μM): 97%
FITC positive cells in the presence of 20-fold excess EGF protein (EGFR on MDA-MB-231 cells; EGF 20 μM, rounded value): 2%
Stability in the presence of human serum (in words) [5]: short half-life
Molecule: CC[C@H](C)[C@H](NC(=O)[C@@H](NC(=O)[C@H](CC(N)=O)NC(=O)[C@H](CCC(=O)O)NC(=O)[C@@H]1CCCN1C(=O)[C@@H](NC(=O)[C@H](Cc1ccc(O)cc1)NC(=O)CNC(=O)[C@H](Cc1ccc(O)cc1)NC(=O)[C@H](Cc1c[nH]c2ccccc12)NC(=O)[C@H](Cc1c[nH]cn1)NC(=O)[C@@H](N)Cc1ccc(O)cc1)[C@@H](C)O)C(C)C)C(=O)O [Peptide 22] (H-YHWYGYTPENVI-OH)
Relative Cell Adhesion MCF-10A (MCF-10A): 1.2
Relative Cell Adhesion MDA-MB-231 (MDA-MB-231 [6]): 2.6
Relative Cell Adhesion MDA-MB-436 (MDA-MB-436 [7]): 1.3
Relative Cell Adhesion MDA-MB-468 (MDA-MB-468 [8]): 1.6
Uptake compared to peptide 1, MDA-MB-231 (MDA-MB-231 [2]; [10]): 47 fold
Mean Fluorescence Intensity ± SD MDA-MB-231 (MDA-MB-231 [2]): 1978 ± 522
Mean Fluorescence Intensity ± SD MDA-MB-436 (MDA-MB-436 [3]): 41 ± 27
Uptake compared to peptide 1, MDA-MB-468 (MDA-MB-468 [4]; [10]): 123 fold
Mean Fluorescence Intensity ± SD MDA-MB-468 (MDA-MB-468 [4]): 8384 ± 735

More lines, now with the values behind:

Molecule: cyclic WXEAAYQkFL (head to tail) [N- to C terminal cyclized analogue of breast cancer targeting peptide 18–4, k is D-lysine]
Stability toward proteolytic degradation (in words) [1]: stable toward proteolytic degradation
Uptake by the breast cancer cells compared to the linear peptide (in words) (breast cancer cells): higher uptake

Molecule: Peptide 1: previously reported EGFR targeting dodecapeptide GE11 (YHWYGYTPQNVI), lead peptide [reference compound]
Mean Fluorescence Intensity ± SD MDA-MB-231 (MDA-MB-231 [2]): 42 ± 8
Mean Fluorescence Intensity ± SD MDA-MB-436 (MDA-MB-436 [3]): 105 ± 11
Mean Fluorescence Intensity ± SD MDA-MB-468 (MDA-MB-468 [4]): 68 ± 45
Stability in the presence of human serum (in words) [5]: short half-life

B1: FITC-labeled soluble peptide 22 (peptide)
peptide: {FITC-βAla}-YHWYGYTPENVI-OH
notes: GE11 analogue, Q9E; also called peptide FITC-22; FITC-22; source: synthetic peptide (Fmoc-SPPS, RP-HPLC purified)
percent FITC positive cells, with 20-fold excess EGF [9]: 2%
